In brackets after ≈: the same amount, converted by molar mass.
How the values were obtained:
Assay in all cases: Bacterial susceptibility testing in liquid media (MIC)
SAU516 = format: cell-based; details: strain SAU516; no unit printed in table (b320 text uses μg/ml); growth reduced by 80% or more, 24 hrs
Protocol: (§1) Compounds were tested for antimicrobial activity by susceptibility testing in liquid media. Compounds were dissolved in dimethylsulfoxide and tested in 10 doubling dilutions in the susceptibility assays. The organisms used in the assay were grown overnight on suitable agar media and then suspended in a liquid medium appropriate for the growth of the organism. The suspension was a 0.5 McFarland and a further 1 in 10 dilution was made into the same liquid medium to prepare the final organism suspension in 100 µL. Plates were incubated under appropriate conditions at 37 degrees C. for 24 hrs prior to reading. The Minimum Inhibitory Concentration was determined as the lowest drug concentration able to reduce growth by 80% or more.

HIN446 = format: cell-based; details: strain HIN446; no unit printed in table (b320 text uses μg/ml); growth reduced by 80% or more, 24 hrs
Protocol: as §1

SPN548 = format: cell-based, Streptococcus pneumoniae; details: strain SPN548; no unit printed in table (b320 text uses μg/ml); growth reduced by 80% or more, 24 hrs
Protocol: as §1

Streptococcus pneumoniae = format: cell-based; details: lowest concentration reducing growth by 80% or more, 37 degrees C., 24 hrs, read-out: MIC against Streptococcus pneumoniae
Protocol: as §1

Row | SMILES | MIC SAU516 (SAU516) | MIC HIN446 (HIN446) | MIC SPN548 (SPN548) | MIC (Streptococcus pneumoniae) [µg/mL]
1 | Cc1[nH]c(C(=O)Nc2ccc(-c3cncc(C(=O)O)c3)cc2)c(Cl)c1Cl [Example 23, 5-[4-[[(3,4-Dichloro-5-methyl-1H-pyrrol-2-yl)carbonyl]amino]phenyl]-3-pyridinecarboxylic acid] | 4 | 2 | 0.13 | –
2 | CNc1ncc(-c2ccc(NC(=O)c3[nH]c(C)c(Cl)c3Cl)cc2)cc1C(=O)O [Example 25, 5-(4-{[(3,4-Dichloro-5-methyl-1H-pyrrol-2-yl)carbonyl]amino}phenyl)-2-(methylamino)nicotinic acid] | 2 | 4 | 1 | –
3 | Cc1[nH]c(C(=O)Nc2ccc(-c3cnc(Cl)c(C(=O)O)c3)cc2)c(Cl)c1Cl [Example 26, 2-Chloro-5-(4-{[(3,4-dichloro-5-methyl-1H-pyrrol-2-yl)carbonyl]amino}phenyl)nicotinic acid] | 32 | 8 | 1 | –
4 | Cc1[nH]c(C(=O)Nc2ccc(-c3cc(C(=O)O)ccn3)cc2)c(Cl)c1Cl [Example 27, 2-(4-{[(3,4-Dichloro-5-methyl-1H-pyrrol-2-yl)carbonyl]amino}phenyl)isonicotinic acid] | 2 | 2 | 0.13 | –
5 | COc1ncc(-c2ccc(NC(=O)c3[nH]c(C)c(Cl)c3Cl)cc2)cc1C(=O)O [Example 30, 5-(4-{[(3,4-Dichloro-5-methyl-1H-pyrrol-2-yl)carbonyl]amino}phenyl)-2-methoxynicotinic acid] | – | – | – | 1 (≈ 2.38 µM)
6 | Cc1[nH]c(C(=O)Nc2ccc(-c3ccc(C(=O)O)o3)cc2)c(Cl)c1Cl [Example 36, 5-(4-{[(3,4-Dichloro-5-methyl-1H-pyrrol-2-yl)carbonyl]amino}phenyl)-2-furoic acid] | 2 | 1 | 0.25 | –

From patent US20080269214A1, “Pyrrole Derivatives as Dna Gyrase and Topoisomerase Inhibitors” (ASTRAZENECA AB, priority 2005, published 2008)
